# Square brackets hold non-standard residues; d marks the D form. Peptide text beside a SMILES is read from it. * marks the point of attachment. Dolaproine = CO[C@@H]([C@@H]1CCCN1)[C@@H](C)C(=O)O; Dil = CC[C@H](C)[C@H](NC)[C@@H](CC(=O)O)OC; X1 = C[C@@H](N*)[C@@H](O)c1ccccc1; NMeV = CN[C@H](C(=O)O)C(C)C
# How the values were obtained:
# [1] = system: thrombin generation (relipidated TF in normal pooled plasma); experiment: Thrombin generation assay (TGA) without antibody pre-incubation; format: biochemical, human; conditions: Table 44
# Method: (§1) The TGA assay was performed using the calibrated-automated-thrombogram (CAT) instrument manufactured and distributed by STAGO. The test method design was equivalent to a standard CAT assay measurement, except that the plasma source was NPP in citrate/CTI. […] Relipidated TF was added to a 96-well assay plate, followed by addition of the antibody/NPP mixture. After a 10-min incubation or directly after combining the relipidated TF with antibody/NPP, thrombin generation was initiated by the addition of calcium and the thrombin substrate. The STAGO software was used to report the following parameters: Peak IIa (highest thrombin concentration generated [nM]); Lag Time (time to IIa generation [min]); ETP (endogenous thrombin potential, area under the curve [nM×min]); and ttPeak (time to Peak IIa [min]).
# as §1, with “was normal pooled plasma (NPP)” for “was NPP”, “in citrate supplemented with corn trypsin inhibitor (citrate/CTI).” for “in citrate/CTI.”
# (§2) TGA assay was performed using the calibrated-automated-thrombogram (CAT) instrument manufactured and distributed by STAGO (Diagnostica Stago SAS, Asnieres sur Seine, France). […] The anti-TF antibodies were titrated at 0, 10, 50 and 100 nM and mixed with NPP in citrate/CTI. Relipidated TF was added to a 96-well assay plate, followed by addition of the antibody/NPP mixture. After a 10-min incubation or directly after combining the relipidated TF with antibody/NPP, thrombin generation was initiated by the addition of calcium and the thrombin substrate. The STAGO software was used to report the following parameters: Peak IIa (highest thrombin concentration generated on the thrombin generation curve [nM]); Lag Time (time from assay start to the moment 10 nM of thrombin is formed [min]); ETP (endogenous thrombin potential, area under the curve [nM×min]); and ttPeak (time from assay start to Peak IIa [min]). […] As used herein, the term “thrombin generation assay” (TGA) refers to the TGA used in this example.
# [2] = system: chimeric human-rat TF constructs expressed on HEK293 cells; experiment: Epitope binning, chimeric TF construct mapping (live cell staining assay); format: binding
# Method: To establish binding of the anti-human TF antibodies to the various TF constructs, HEK293 cells were transfected with a DNA plasmid that co-expresses the TF construct and a green fluorescent protein marker. For a subset of the antibodies, an antibody titration (a 12-point 1:3 dilution series starting at 250 nM) was evaluated on select TF constructs (See international PCT application PCT/US2019/012427 and U.S. utility application Ser. No. 16/959,652, incorporated herein by reference in their entirety). […] Two days after transfection, cells were collected from the tissue culture plate, stained with 15 μg/ml of the indicated anti-TF antibody, washed, stained with anti-human IgG-Fc Alexa Fluor 647 polyclonal antibody, washed, and stained with the viability dye 4′,6-Diamidino-2-Phenylindole, Dihydrochloride. Upon acquisition of 80,000 live events on a flow cytometer, live cells marked with the fluorescent marker were analyzed for the degree of staining by the anti-TF antibody. […] As used herein, the term “live cell staining assay” refers to the antibody binding assay used in this example.
# When “Percentage antibody binding to TF construct relative to hTF” in Tables 51 and 52 was less than 50%, the antibody was considered a non-binder (0) in Tables 53 and 54.
# [3] = system: thrombin generation (relipidated TF in normal pooled plasma); experiment: Thrombin generation assay (TGA) with 10 min antibody pre-incubation; format: biochemical, human
# Method: as §1
# as §1, with “was normal pooled plasma (NPP)” for “was NPP”, “in citrate supplemented with corn trypsin inhibitor (citrate/CTI).” for “in citrate/CTI.”
# as §2
# HUVECs = experiment: G2/M arrest (phospho-Histone H3) in HUVECs; format: cell-based, human; conditions: HCT-116 cells and HUVECs
# Method: To further understand the resistance of endothelial cells to anti-TF ADCs, cell cycle progression was evaluated 24 h after addition of the cytokines and TF-specific ADCs. Arrest at the G2/M phase of the cell cycle was analyzed as previously described in Theunissen et al, Methods Enzymol, 2006, 409:251-284. Briefly, low-passage HUVECs (Lifeline Cell Technologies, Frederick, MD, USA), propagated in VascuLife VEGF-Mv Endothelial media (Lifeline Cell Technologies), and HCT-116 cells were seeded on 12-well plates. The next day, media was removed and replaced with fresh media (no cytokines) or media containing 5 […] IL1-beta, 25 ng/mL TNF-alpha and 50 ng/mL VEGF (with cytokines). A titration of MMAE-linked ADCs or free MMAE was added to the cells. After 24 h of treatment, cells were fixed in ice-cold 70% ethanol. Subsequently, the cells were washed with flow cytometry buffer (PBS, 1% FBS, 0.1% Triton) and stained for 1 h with a 1:100 dilution of phospho-Histone H3 (Ser10) (D2C8 PE Conjugate, Cell Signaling Technology). After 2 washes, the cells were treated for 20 min with 100 μg/mL PureLink RNAse A (ThermoFisher Scientific), followed by the addition of the viability dye TO-PRO-3 Iodide (ThermoFisher Scientific). 40,000 events were collected on a Novocyte flow cytometer. In the Flowjo data analysis software cell doublets and aneuploid cells were excluded. […]
# [4] = system: DSS-colitis model, C57BL/6 mice; experiment: DSS-colitis model (2.5% DSS); format: in vivo, mouse
# From the text: In a colitis model, the administration of dextran sulfate sodium (DSS) causes colitis-like pathologies due to toxicity to colonic epithelial cells, which leads to a compromised mucosal function and infiltration of neutrophils, macrophages and lymphocytes. It results in loss of epithelial barrier function, secretion of proinflammatory cytokines and chemokines, and the influx of cells with cytotoxic potential, such as neutrophils and inflammatory macrophages. It is not considered a T-cell-mediated process in the art.
# On Day 0 of the study, 8-12 week old male C57BL/6 mice received either sterile water ad libitum (Group 1, n=5) or 2.5% (w/v) DSS dissolved into sterile water ad libitum (Groups 2-5, n=10 mice per group).
# On Day 8, all animals received sterile water for the remainder of the experiment and were euthanized on day 10.
# Throughout the study clinical observations were made daily. Body weight was measured and recorded daily (from Day 0 to Day 10). Body condition was also evaluated visually daily using the scoring system illustrated in FIG. 2. The stool consistency was determined qualitatively and blood in stool was measured daily using a hemoccult stool bleeding test. […]
# Following euthanasia, the animal was measured (length determined) and weighed. Weight/length ratio was calculated for each animal. The animals were dissected and the weight of their spleens was determined. […]
# [5] = system: LPS-induced acute lung injury model, BALB/c mice; experiment: LPS-induced acute lung injury model; format: in vivo, mouse; conditions: end of the study; 431D8 1 mg/kg IP; dexamethasone 3 mg/kg IP
# Method: For this study, 48 male BALB/c mice were randomly and prospectively assigned to five groups: a group of six (n=6), a group of twelve (n=12), and three groups of ten (n=10 per group) animals each. On Day 0, animals in Groups 2-5 were dosed according to Table 63, 60 minutes prior to LPS administration. […] Animals were then released into a recovery cage until they woke up.
# All animals were weighed and evaluated for respiratory distress daily (defined as an increase in respiratory rate and/or obvious respiratory effort). Animals with severe respiratory distress, or animals that lost greater than 20% of their total starting body weight, were euthanized within 2 hours of observation.
# At 48 hours post-LPS challenge all animals were sacrificed with an overdose of xylazine and bronco-alveolar lavage (BAL) of the right lung only was performed (by tying off the left lung) for total and differential cell counts as well as total protein quantification and cytokine quantitation by Luminex. Lungs were then weighed (total lung weight and right lung weight). The right lung was frozen in liquid nitrogen and stored at −80° C. […] All slides were evaluated by a board-certified veterinary pathologist who used a scoring system to evaluate extent of lung injury and inflammation.
compound,measurement,setting,value
5G9: previously described TF-specific antibody,ETP,[1]; Ab conc. 10 nM,1176 nM·min
same,Antibody binding to TF construct,"[2]; Table 53, construct rTF","0 (less than 50%, the antibody was considered a non-binder (0))"
same,Antibody binding to TF construct,"[2]; Table 54, construct rTF","0 (less than 50%, the antibody was considered a non-binder (0))"
same,Constructs not bound by antibody,[2]; chimeric human-rat TF constructs,"rTF, h1-107_r, h108-219_r, h159-219_r, h159-189_r, h159-174_r, h167-174_r, h190-219_r"
same,Antibody binding to TF construct,"[2]; construct h78-107_r (21), human segment replaced by rat segment","1 (between 50% and 150%, the antibody was considered a binder (1))"
same,Antibody binding to TF construct,"[2]; construct h108-219_r (46), human segment replaced by rat segment","0 (less than 50%, the antibody was considered a non-binder (0))"
same,Antibody binding to TF construct,"[2]; construct h159-219_r (27), human segment replaced by rat segment","0 (less than 50%, the antibody was considered a non-binder (0))"
same,Antibody binding to TF construct,"[2]; construct r141-194_h (rat amino acid segment replaced by human segment, 20 amino acid changes)","0 (less than 50%, the antibody was considered a non-binder (0))"
same,Percent antibody binding to TF construct relative to hTF,"[2]; construct r141-194_h (rat amino acid segment replaced by human segment, 20 amino acid changes), 15 μg/ml antibody",32%
10H10: previously described TF-specific antibody [reference compound],ETP,[1]; Ab conc. 10 nM,2036 nM·min
same,ETP,[1]; Ab conc. 50 nM,1978 nM·min
same,ETP,[1]; Ab conc. 100 nM,1945 nM·min
same,ETP,[3]; Ab conc. 10 nM,1807 nM·min
same,ETP,[3]; Ab conc. 50 nM,1754 nM·min
same,ETP,[3]; Ab conc. 100 nM,1795 nM·min
"CC[C@H](C)[C@@H]([C@@H](CC(=O)N1CCC[C@H]1[C@H](OC)[C@@H](C)C(=O)N[C@H](C)[C@@H](O)c1ccccc1)OC)N(C)C(=O)[C@@H](NC(=O)[C@@H](NC)C(C)C)C(C)C [MMAE, monomethyl auristatin E] (H-[NMeV]V[Dil][Dolaproine]-X1)",phosphorylation of histone H3,HUVECs,increase the phosphorylation of histone H3 to a similar extent in both HCT-116 cells and HUVECs
"Cyclosporine [CsA, reference compound]",body condition score,[4]; after Day 7,most significant deterioration in body condition
same,weight loss relative to baseline,"[4]; by Day 4, CsA 80 mg/kg once daily oral gavage",~20%
Dexamethasone [reference compound],weight loss relative to baseline,[5],about 2%
